Article PMC6874683, “Pyrrothiogatain acts as an inhibitor of GATA family proteins and inhibits Th2 cell differentiation in vitro” (Scientific Reports, 2019)
Where “and” joins values, the source holds several entries; their conditions need not be identical. Equal values may be shown once.

Experiments:
[1] = target: T1, GATA3 (Homo sapiens, UniProt P23771); test: AlphaScreen DNA-binding assay, GATA3 with GATA consensus DNA
T1 construct: we synthesized the recombinant full-length GATA3 protein with an N-terminal FLAG tag using the wheat cell-free system; made in house; host or cells: wheat cell-free protein synthesis system (WEPRO1240 kit)
Procedure: For the protein-DNA binding assay on a 384-well AlphaPlate (Perkin Elmer), 10 μL of bait protein mixture containing 1 µL FLAG-tagged protein in AlphaScreen Buffer (100 mM Tris-HCl (pH 8.0), 150 mM NaCl, 0.1% Tween 20, and 1 mg/mL BSA) and 5 µL biotinylated oligonucleotide (0–10 µM final concentration) in AlphaScreen Buffer were dispended into the AlphaPlate. Then, the plate was incubated at 26 °C for 1 h. After incubation, 10 μL of the detection mixture containing 0.4 µg/mL Anti-DYKDDDDK antibody (1E6, Wako), 0.1 μL streptavidin-conjugated AlphaScreen donor beads, and 0.1 μL protein A-conjugated AlphaScreen acceptor beads in AlphaScreen Buffer was mixed and incubated at 26 °C for 1 h, and then, the AlphaScreen signal was detected using an EnVision device with the AlphaScreen signal detection program (PerkinElmer).
For the AlphaScreen-based chemical library screening, we used a diverse set of 9,600 synthesized chemicals established by the Drug Discovery Initiative (The University of Tokyo, Tokyo, Japan). All chemical compounds (10 mM) were dissolved in DMSO, and were pre-dispensed into a 384-well Alphaplate (250 nL/well). […] The AlphaScreen signal was detected using an EnVision device with the AlphaScreen signal detection program (PerkinElmer). […]

[2] = system: Th2 cytokine and GATA3 mRNA; test: Quantitative RT-PCR, naive CD4+ T cells under Th2 conditions; format: cell-based, mouse; details: 5 days
Procedure: C57BL/6 mice were purchased from Clea (Clea Japan, Inc., Tokyo, Japan). Total CD4^+ T cells isolated from mouse spleen were prepared using a FITC anti-mouse CD4 antibody (Cat#100510, RM4–5, BioLegend) and anti-FITC-microbeads (Cat#130-097-050, Miltenyi Biotec). Naive CD4^+ T cells (CD44^low, CD62L^high) were prepared using a MojoSort Mouse CD4 T cell Isolation Kit (Cat#480033), BioLegend). Biotinylated anti-CD44 (Cat#103004, IM7) and anti-CD25 antibodies (Cat#102004, PC61) were purchased from BioLegend. CD4^+ T cells (7.5 × 10^5) were stimulated using immobilized anti-TCR-β mAb (3 µg/mL, H57–597, BioLegend) plus an anti-CD28 mAb (1.0 µg/mL, cat#40–0281, TONBO Biosciences) for 2 days, and then, the cells were further expanded under similar conditions for an additional 3 days. IL-2 conditions: IL-2 (10 ng/mL, Pepro Tech); Th2 conditions: IL-2 (10 ng/mL, Pepro Tech), IL-4 (1 ng/mL, Pepro Tech), and anti-IFN-γ mAb (2.5 µg/mL, cat#40–731, TONBO Biosciences). Th1 conditions: IL-2 (10 ng/mL, Pepro Tech), IL-12 (1 ng/mL, Pepro Tech), and anti-IL-4 mAb (2.5 µg/mL, cat#40–731, TONBO Biosciences). The cultured cells were subjected to intracellular staining, ELISA assay, and RT-PCR. All animal experiments received approval from the Ehime University Administrative Panel for Animal Care. All animal care was conducted in accordance with the guidelines of Ehime University. […]

[3] = system: GATA3 binding to Th2 cytokine gene locus; test: Chromatin immunoprecipitation with anti-GATA3 antibody in Th2 cells; format: cell-based, mouse; details: naive CD4+ T cells, Th2 conditions, 80 µM, 2 days
Procedure: GATA3 has been reported to bind to Th2 cytokine gene locus, such as IL-4 VA enhancer, IL-4 intron enhancer, conserved Gata3-response element (CGRE)[26] and IL-5 promoter[27] regions in Th2 cells. We investigated whether pyrrothiogatain inhibited GATA3 binding to Th2 cytokine gene locus. Naive CD4^+ T cells were cultured under Th2 conditions in the presence or absence of 80 µM pyrrothiogatain for 2 days, and then the cells were subjected to chromatin immunoprecipitation with an anti-GATA3 antibody.
The Magna ChIP Chromatin Immunoprecipitation Kit was used for the ChIP assay according to the manufacturer’s protocol (Merck-Millipore). Anti-GATA3 antibody (Cat#AF2605, R&D systems) was used for chromatin immunoprecipitation. The specific primers for the Th2 cytokine gene locus and the Roche Universal probes were used as follows: the VA site in the IL-4 enhancer: 5′-[…]-3′ (forward), 5′-[…]-3′ (reverse), probe #4; IL-4 IE: 5′-[…]-3′ (forward), 5′-AAATCCGAAACTGA GGAGTGC-3′ (reverse), probe #75; CGRE: 5′-CTCTCCTGGTGGCGTGTT-3′ (forward), 5′-CTTTGCGCACCCTTGAAC-3′ (reverse), probe #53; and IL-5p: 5′-[…]-3′ (forward), 5′-[…]-3′ (reverse), probe #43;

T1 sequence (P23771 whole entry, species assumed): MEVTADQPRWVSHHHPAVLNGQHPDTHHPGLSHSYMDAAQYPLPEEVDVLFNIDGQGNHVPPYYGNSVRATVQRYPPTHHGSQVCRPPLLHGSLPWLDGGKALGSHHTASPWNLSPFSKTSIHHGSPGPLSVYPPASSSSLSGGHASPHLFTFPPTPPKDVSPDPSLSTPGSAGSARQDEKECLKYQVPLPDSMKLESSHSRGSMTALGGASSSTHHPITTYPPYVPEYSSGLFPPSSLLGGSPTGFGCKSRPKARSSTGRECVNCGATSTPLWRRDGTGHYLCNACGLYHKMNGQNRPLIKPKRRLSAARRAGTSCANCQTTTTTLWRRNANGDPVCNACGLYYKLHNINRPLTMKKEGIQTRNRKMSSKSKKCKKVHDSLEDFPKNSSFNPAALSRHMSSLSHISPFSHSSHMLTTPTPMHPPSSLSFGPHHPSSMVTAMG

IC50 ([1]; AlphaScreen, pyrrothiogatain 0 to 200 µM): ~50 µM and 54.7 µM
Inhibition of GATA3–DNA binding in the second screen ([1]; second screen, 0 to 10 µM): specifically inhibited
Compound: Cc1ccc(C)n1-c1ccsc1C(=O)O [Pyrrothiogatain, 3-(2,5-dimethyl-1H-pyrrol-1-yl)thiophene-2-carboxylic acid]
mRNA expression of IL-4, IL-5 and IL-13 (RT-qPCR) ([2]; 30 and 80 µM): Decreased
Expression of GATA3, mRNA level [2]: not influenced
GATA3 binding to the IL-4 VA enhancer, IL-4 intron enhancer, CGRE and IL-5 promoter regions [3]: repressed
